Laboratory results taken from patent publication US20030148377A1, “Binding compounds and methods for identifying binding compounds” (priority 2000, published 2003).

How the values were obtained:
Format in all cases: cell-based
[1] = system: Tyr phosphorylation of PLCγ1 or LAT in Jurkat cells; experiment: Anti-CD3-dependent Tyr phosphorylation of PLCγ1 or LAT in Jurkat cells; conditions: CD3ε cross-linking
Procedure: Penetratin-containing peptides (FIG. 2A; peptide 7 (SEQ ID NO: 11) or peptide 8 (SEQ ID NO: 12)) were dissolved in DMSO and diluted to 20 μM in 500 μl of serum-free RPMI1640 medium. Ten million Jurkat cells, suspended in 500 μl of serum-free RPMI1640, were added to the peptide solutions for diluted DMSO control and incubated for 30 min at 37° C. Peptide-pretreated cells were treated with 1 μg of the anti-CD3ε mAb at 4° C. for 10 min, followed by another 10 min incubation in the presence of 5 μg of rabbit anti-mouse Ig. Cells were activated by shifting the temperature to 37° C. for 2 min and subsequently lysed in 1% NP40 lysis buffer. Lysates were immunoprecipitated with either the 4G10 anti-phosphotyrosine mAb (FIG. 2B; lanes 1-5), or with anti-PLCγ1 antibody (FIG. 2B; lanes 6-10), or with anti-LAT antibody (FIG. 2D; lane 11-15), and immunoblotted with the HRP-conjugated anti-phosphotyrosine Ab, RC20H. Lanes 1, 2, 6, 7, 11 and 12 corresponded to untreated Jurkat cells; lysates in lanes 3, 8, and 13 were prepared from cells treated with DMSO; lysates in lanes 4, 9, and 14 were prepared from cells treated with peptide 7; lysates in lanes 5, 10, and 15 were prepared from cells treated with peptide 8. (−) indicates nonstimulated cells; (+) indicates stimulation by CD3ε cross-linking. Each blot was stripped and reprobed with anti-PLCγ1 antibody (FIG. 2C) or anti-LAT antibody (FIG. 2E). Jurkat cells were electroporated in the presence of 10 μg of plasmid carrier DNA, 100 ng of Renilla luciferase control vector, and 2.5 μg of a luciferase reporter gene. Transfectants were treated with 10 μM of peptide 7, peptide 8, or DMSO as described above. Treated cells were stimulated with plate-bound anti-CD3ε mAb and 10 ng/ml of PMA (phorbol 12-myristate-13-acetate; FIG. 2F), or 10 ng/ml of PMA plus 2 μM of ionomycin (FIG. 2G) at 37° C. for 2 hr. Luciferase activities from lysates were measured using a Dual-Luciferase Reporter System and Monolight 2010 luminometer. […]

[2] = system: human IL-2 promoter luciferase reporter in Jurkat cells; experiment: IL-2 reporter gene analysis, anti-CD3ε mAb plus PMA (ZAP-70-dependent pathway); conditions: 10 μM peptide; anti-CD3 plus phorbol ester as stimulant, 2 hr; FIG. 2F
Procedure: (§1) Penetratin-containing peptides (FIG. 2A; peptide 7 (SEQ ID NO: 11) or peptide 8 (SEQ ID NO: 12)) were dissolved in DMSO and diluted to 20 μM in 500 μl of serum-free RPMI1640 medium. Ten million Jurkat cells, suspended in 500 μl of serum-free RPMI1640, were added to the peptide solutions for diluted DMSO control and incubated for 30 min at 37° C. Peptide-pretreated cells were treated with 1 μg of the anti-CD3ε mAb at 4° C. for 10 min, followed by another 10 min incubation in the presence of 5 μg of rabbit anti-mouse Ig. Cells were activated by shifting the temperature to 37° C. for 2 min and subsequently lysed in 1% NP40 lysis buffer. […] Luciferase activities from lysates were measured using a Dual-Luciferase Reporter System and Monolight 2010 luminometer.
(§2) Jurkat cells were electroporated at 250V, 800 μF settings (Invitrogen Life Technologies, Carlsbad, Calif.), in the presence of 10 μg of plasmid carrier DNA (pCAGGS vector), 100 ng of Renilla luciferase control vector (pRL null), and 2.5 μg of a luciferase reporter gene whose transcriptional activity is controlled by the human IL-2 promoter (IL-2-Luc). […] Luciferase activities from lysates were measured using a Dual-Luciferase Reporter System (Promega, Madison, Wis.) and Monolight 2010 luminometer (Analytical Luminescence Laboratory, San Diego, Calif.). […]

[3] = system: human IL-2 promoter luciferase reporter in Jurkat cells; experiment: IL-2 reporter gene analysis, PMA plus ionomycin (pathway that circumvents ZAP-70); conditions: 10 μM peptide; phorbol ester plus ionomycin; FIG. 2G
Procedure: as §1, §2

peptide 8: chimeric peptide with penetratin at the N terminus and peptide 4 at the C terminus (RQIKIWFQNRRMKWKKKLILFLLLL)
effect on anti-CD3-stimulated Tyr-phosphorylation of most proteins (in words) ([1]; 30 min peptide pretreatment at 37° C., anti-phosphotyrosine blot, FIG. 2B): little effect on most of these proteins | Tyr phosphorylation of LAT (in words) ([1]; anti-LAT immunoprecipitates, FIG. 2D lane 15): reduced the Tyr phosphorylation | Tyr phosphorylation of PLCγ1 (in words) ([1]; anti-PLCγ1 immunoprecipitates, FIG. 2B lane 10): reduced the Tyr phosphorylation of PLCγ1 | inhibition of gene expression (IL-2 reporter) [2]: more than 70% | effect on IL-2 reporter gene expression (in words) [3]: no effect on gene expression
